{"source": "patent US7488481B2", "about": "“Polypeptides derived from anti-HIV-1 gp120 antibodies that abrogate gp120 binding to CCR5” (priority 2003, dated 2009)", "key": {"[1]": {"tested_on": "interaction between gp120 and CCR5", "assay": "Effectiveness of peptides based upon E51"}, "ADA gp120": {"tested_on": "ADA gp120", "assay": "Peptide competition of scFv association with ADA gp120 and CD4-Ig", "format": "binding, HIV-1", "conditions": "scFv of sulfated antibodies", "protocol": "Radiolabeled single-chain antibody constructs (scFv) were incubated with radiolabeled gp120 of the ADA isolate in the presence and absence of soluble CD4. […] Ratios of gp120 precipitated in the presence and absence of soluble CD4 were calculated by densitometry. Radiolabeled scFv was incubated with ADA gp120 and CD4-Ig in the presence of peptide buffer (buffer only), an unsulfated peptide derived from the first 22 residues of the CCR5 amino-terminus (c22), a peptide derived from the first 22 residues of the CCR5 amino-terminus in which tyrosines 10 and 14 are sulfated (s22), or a peptide derived from residues 7-28 of the C5a receptor sulfated at the tyrosines corresponding to residues 11 and 14 of the C5a receptor (c5aR-s22)."}, "[2]": {"tested_on": "association of gp120 with CCR5", "conditions": "peptides previously characterized; cited from earlier work"}}, "note": "Ends that are not written are not given here. * marks the point of attachment. SO3H = O=S(=O)(O)*"}
{"substance": "GDYADYDGGYYYDMD (listed as Homo sapiens) [SEQ ID NO:3, shorter peptide based upon E51]", "values": [{"measurement": "effectiveness compared with the longer sequence SEQ ID NO:4", "setting": "[1]", "value": "just as effective as the longer sequence"}]}
{"substance": "c5aR-s22: peptide from residues 7-28 of the C5a receptor sulfated at tyrosines 11 and 14", "values": [{"measurement": "effect of peptide on association of scFv with ADA gp120", "setting": "ADA gp120", "value": "very modest inhibition"}, {"measurement": "effect of peptide on the association of gp120 with CCR5", "setting": "[2]", "value": "did not have a noticeable effect"}]}
{"substance": "c22: unsulfated peptide derived from the first 22 residues of the CCR5 amino-terminus (MDYQVSSPIYDINYYTSEPCQK; UniProt P51681 1-22, looked up, fragment)", "values": [{"measurement": "effect of peptide on association of scFv with ADA gp120", "setting": "ADA gp120", "value": "no significant effect"}]}
{"substance": "s22: peptide from the first 22 residues of the CCR5 amino-terminus in which tyrosines 10 and 14 are sulfated (MDYQVSSPIY(SO3H)DINY(SO3H)YTSEPCQK)", "values": [{"measurement": "effect of peptide on association of scFv with ADA gp120", "setting": "ADA gp120", "value": "inhibited"}]}
